# From paper PMC8155022 (Scientific Reports, 2021)
# Where two headings read alike, the source gives them in different places.
# Experiments:
# TRα = TRα (Homo sapiens, UniProt P10827); experiment: nuclear receptor cellular GAL4 reporter assay; type: cell-based; details: agonist and antagonist mode; read-out: potency in agonist and antagonist mode
# PPARα = biological target: T1, PPARα (Homo sapiens, UniProt Q07869); experiment: nuclear receptor cellular GAL4 reporter assay; type: cell-based; details: agonist and antagonist mode; read-out: potency in agonist and antagonist mode
# T1 construct: expressed in transfected cells
# PPARβ = biological target: T2, PPARβ (Homo sapiens, UniProt Q03181); experiment: nuclear receptor cellular GAL4 reporter assay; type: cell-based; details: agonist and antagonist mode; read-out: potency in agonist and antagonist mode
# T2 construct: expressed in transfected cells
# PPARγ = biological target: T3, PPARγ (Homo sapiens, UniProt P37231); experiment: nuclear receptor cellular GAL4 reporter assay; type: cell-based; details: agonist and antagonist mode; read-out: potency in agonist and antagonist mode
# T3 construct: expressed in transfected cells
# ERβ = biological target: T4, ERβ (Homo sapiens, UniProt Q92731); experiment: nuclear receptor cellular GAL4 reporter assay; type: cell-based; details: agonist and antagonist mode; read-out: potency in agonist and antagonist mode
# T4 construct: expressed in transfected cells
# GR = biological target: T5, GR (Homo sapiens, UniProt P04150); experiment: nuclear receptor cellular GAL4 reporter assay; type: cell-based; details: agonist and antagonist mode; read-out: potency in agonist and antagonist mode
# T5 construct: expressed in transfected cells
# PR = biological target: T6, PR (Homo sapiens, UniProt P06401); experiment: nuclear receptor cellular GAL4 reporter assay; type: cell-based; details: agonist and antagonist mode; read-out: potency in agonist and antagonist mode
# T6 construct: expressed in transfected cells
# A3 (h) = biological target: T7, A3 (h) (Homo sapiens, UniProt P0DMS8); experiment: Cerep panel; type: binding
# T7 construct: purchased Cerep (receptors, ion channels, transporters); Eurofins Panlabs (kinases)
# T7 sequence (P0DMS8 1-318): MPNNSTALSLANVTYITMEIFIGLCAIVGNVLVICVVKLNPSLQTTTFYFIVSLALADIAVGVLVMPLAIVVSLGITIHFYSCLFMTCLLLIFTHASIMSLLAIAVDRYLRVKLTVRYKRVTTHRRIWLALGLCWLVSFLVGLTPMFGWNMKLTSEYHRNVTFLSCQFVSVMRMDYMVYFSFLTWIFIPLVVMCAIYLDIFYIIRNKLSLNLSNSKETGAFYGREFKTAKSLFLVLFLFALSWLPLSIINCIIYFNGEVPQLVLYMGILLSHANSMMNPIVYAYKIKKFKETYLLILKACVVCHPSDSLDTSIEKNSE
# Experimental: 28 GPCRs were evaluated through cAMP or calcium FLIPR assays[67]. A panel of 52 different receptors, ion channels and transporters was tested by Cerep, Inc. (Redmond, WA). Kinase selectivity was conducted by Eurofins Panlabs Inc (St Charles, MO).
# AT1 (h) = biological target: T8, AT1 (h) (Homo sapiens, UniProt P30556); experiment: Cerep panel; type: binding
# T8 construct: purchased Cerep (receptors, ion channels, transporters); Eurofins Panlabs (kinases)
# Experimental: (§1) A panel of 52 different receptors, ion channels and transporters was tested by Cerep, Inc. (Redmond, WA).
# D2S (h) = biological target: T9, D2S (h) (Homo sapiens, UniProt P14416); experiment: Cerep panel; type: binding
# T9 construct: purchased Cerep (receptors, ion channels, transporters); Eurofins Panlabs (kinases)
# Experimental: as §1
# NT1 (h) (NTS1) = biological target: T10, NT1 (h) (NTS1) (Homo sapiens, UniProt P30989); experiment: Cerep panel; type: binding
# T10 construct: purchased Cerep (receptors, ion channels, transporters); Eurofins Panlabs (kinases)
# Experimental: as §1
# VIP1 (h) (VPAC1) = biological target: T11, VIP1 (h) (VPAC1) (Homo sapiens, UniProt P32241); experiment: Cerep panel; type: binding
# T11 construct: purchased Cerep (receptors, ion channels, transporters); Eurofins Panlabs (kinases)
# Experimental: as §1
# A3 [1] = biological target: T12, A3 (Homo sapiens, UniProt P0DMS8); experiment: GPCR panel, cAMP or calcium FLIPR assays; type: cell-based
# T12 sequence (P0DMS8 1-318): T7 sequence (P0DMS8 1-318)
# Experimental: (§2) 28 GPCRs were evaluated through cAMP or calcium FLIPR assays[67].
# ADRA1A = ADRA1A (Homo sapiens, UniProt P35348); experiment: GPCR panel, cAMP or calcium FLIPR assays; type: cell-based
# Experimental: as §2
# ADRA2C = ADRA2C (Homo sapiens, UniProt P18825); experiment: GPCR panel, cAMP or calcium FLIPR assays; type: cell-based
# Experimental: as §2
# KOP = KOP (Homo sapiens, UniProt P41145); experiment: GPCR panel, cAMP or calcium FLIPR assays; type: cell-based
# Experimental: as §2
# IR(h) = biological target: T13, IR(h) (Homo sapiens, UniProt P06213); experiment: Kinase panel; type: biochemical
# T13 construct: purchased Cerep (receptors, ion channels, transporters); Eurofins Panlabs (kinases)
# Experimental: (§3) Kinase selectivity was conducted by Eurofins Panlabs Inc (St Charles, MO).
# MAPK2(h) = biological target: T14, MAPK2(h) (Homo sapiens, UniProt P28482); experiment: Kinase panel; type: biochemical
# T14 construct: purchased Cerep (receptors, ion channels, transporters); Eurofins Panlabs (kinases)
# Experimental: as §3
# Rsk3(h) = biological target: T15, Rsk3(h) (Homo sapiens, UniProt Q15349); experiment: Kinase panel; type: biochemical
# T15 construct: purchased Cerep (receptors, ion channels, transporters); Eurofins Panlabs (kinases)
# Experimental: as §3
# A3 [2] = biological target: T12, A3; experiment: follow-up functional study; type: cell-based; details: read-out: IC50 in follow-up functional studies
# [3] = system: IMQ-induced skin inflammation in mice; experiment: imiquimod-induced dermal inflammation model; type: in vivo, mouse
# TK6 = experiment: mammalian cell (TK6) micronucleus test; type: cell-based; details: in vitro
# [4] = phase 1 single ascending dose study, pharmacokinetics; type: in vivo, human; details: for Tmax: median (range)
# Experimental: Based on mean values, dose normalized overall exposure (AUC216h, AUC∞) also appeared to increase proportionally with dose.
# Informed consent was obtained from all participants. No formal sample size and power calculations were performed.
# Plasma samples with K2EDTA anticoagulant were treated with acetonitrile for protein extraction then processed with liquid chromatography coupled to tandem mass spectrometry. Reversed-phase HPLC separation was used and tandem MS/MS detection was set in TIS positive mode. […] All the data reported in sample analysis and validation met the predefined acceptance criteria and fulfilled the requirements and recommendations in the current FDA guidance for bioanalytical method validations and analysis.
# plasma protein binding = type: in vitro ADME; details: human
# [5] = both sexes, human, plasma, po, 10 mg, 10 mg single oral dose, fasted, n=6, mean (SD)
# [6] = both sexes, human, plasma, po, 30 mg, 30 mg single oral dose, fasted, n=6, mean (SD)
# [7] = both sexes, human, plasma, po, 100 mg, 100 mg single oral dose, fasted, n=9, mean (SD)
# [8] = both sexes, human, plasma, po, 100 mg, 100 mg single oral dose, fed, n=9, mean (SD)
# [9] = both sexes, human, plasma, po, 200 mg, 200 mg single oral dose, fasted, n=6, mean (SD)
# T11 sequence (P32241 31-457): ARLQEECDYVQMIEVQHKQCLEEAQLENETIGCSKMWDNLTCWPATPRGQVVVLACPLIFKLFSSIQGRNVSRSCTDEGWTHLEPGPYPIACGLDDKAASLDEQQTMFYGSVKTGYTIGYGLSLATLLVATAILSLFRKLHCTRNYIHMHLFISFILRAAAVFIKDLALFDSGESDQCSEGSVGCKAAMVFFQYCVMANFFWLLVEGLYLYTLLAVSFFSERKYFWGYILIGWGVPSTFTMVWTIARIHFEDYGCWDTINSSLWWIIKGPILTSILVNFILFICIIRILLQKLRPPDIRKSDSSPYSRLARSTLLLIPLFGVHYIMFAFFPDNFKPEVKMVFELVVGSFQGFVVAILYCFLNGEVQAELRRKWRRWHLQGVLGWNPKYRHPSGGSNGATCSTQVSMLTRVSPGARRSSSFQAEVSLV
# T10 sequence (P30989 whole entry): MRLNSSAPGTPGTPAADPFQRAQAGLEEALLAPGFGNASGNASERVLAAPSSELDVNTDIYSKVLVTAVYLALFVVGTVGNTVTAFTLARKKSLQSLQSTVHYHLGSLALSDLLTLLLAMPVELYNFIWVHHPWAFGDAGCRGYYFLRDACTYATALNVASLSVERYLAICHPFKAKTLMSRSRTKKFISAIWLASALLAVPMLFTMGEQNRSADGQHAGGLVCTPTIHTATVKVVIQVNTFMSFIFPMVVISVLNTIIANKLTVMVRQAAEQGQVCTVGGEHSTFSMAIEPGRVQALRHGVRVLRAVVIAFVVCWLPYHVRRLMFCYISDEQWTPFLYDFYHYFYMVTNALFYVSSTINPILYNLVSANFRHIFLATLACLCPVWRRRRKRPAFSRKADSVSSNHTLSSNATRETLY
# T13 sequence (P06213 28-1382): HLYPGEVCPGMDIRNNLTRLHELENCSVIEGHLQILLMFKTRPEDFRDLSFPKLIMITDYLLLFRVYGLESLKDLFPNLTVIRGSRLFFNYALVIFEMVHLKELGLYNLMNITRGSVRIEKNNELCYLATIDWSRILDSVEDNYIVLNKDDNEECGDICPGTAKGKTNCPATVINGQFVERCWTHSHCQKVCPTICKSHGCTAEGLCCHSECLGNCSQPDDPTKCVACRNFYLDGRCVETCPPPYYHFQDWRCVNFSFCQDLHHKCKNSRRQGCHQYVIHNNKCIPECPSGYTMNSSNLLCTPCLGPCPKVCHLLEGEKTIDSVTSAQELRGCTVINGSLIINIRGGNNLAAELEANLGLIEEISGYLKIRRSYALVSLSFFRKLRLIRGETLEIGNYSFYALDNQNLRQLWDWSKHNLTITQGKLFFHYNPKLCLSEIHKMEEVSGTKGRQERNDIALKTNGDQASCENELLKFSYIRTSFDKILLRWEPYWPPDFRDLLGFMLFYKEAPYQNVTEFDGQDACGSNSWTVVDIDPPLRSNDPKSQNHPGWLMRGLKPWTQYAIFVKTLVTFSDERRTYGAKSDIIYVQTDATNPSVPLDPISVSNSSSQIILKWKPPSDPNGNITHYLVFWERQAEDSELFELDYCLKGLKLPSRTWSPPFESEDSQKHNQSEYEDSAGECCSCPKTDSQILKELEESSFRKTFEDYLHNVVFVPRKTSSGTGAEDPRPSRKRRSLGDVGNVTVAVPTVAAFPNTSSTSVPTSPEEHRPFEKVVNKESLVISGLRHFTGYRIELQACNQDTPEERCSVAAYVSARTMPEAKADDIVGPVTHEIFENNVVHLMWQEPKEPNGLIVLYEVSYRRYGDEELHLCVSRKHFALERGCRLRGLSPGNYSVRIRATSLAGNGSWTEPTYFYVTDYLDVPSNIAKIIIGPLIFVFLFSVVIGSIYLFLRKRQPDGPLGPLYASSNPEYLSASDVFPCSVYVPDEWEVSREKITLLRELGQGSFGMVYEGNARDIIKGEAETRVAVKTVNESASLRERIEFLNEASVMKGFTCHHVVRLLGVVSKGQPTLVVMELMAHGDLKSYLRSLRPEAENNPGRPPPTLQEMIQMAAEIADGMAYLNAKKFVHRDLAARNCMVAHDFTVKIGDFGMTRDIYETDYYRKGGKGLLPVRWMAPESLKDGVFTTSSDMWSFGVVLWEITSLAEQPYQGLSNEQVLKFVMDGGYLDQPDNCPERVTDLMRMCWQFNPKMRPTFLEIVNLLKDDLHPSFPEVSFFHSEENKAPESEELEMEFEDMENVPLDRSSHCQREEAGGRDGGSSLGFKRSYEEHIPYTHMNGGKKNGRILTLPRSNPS
# KOP, sequence (P41145 whole entry): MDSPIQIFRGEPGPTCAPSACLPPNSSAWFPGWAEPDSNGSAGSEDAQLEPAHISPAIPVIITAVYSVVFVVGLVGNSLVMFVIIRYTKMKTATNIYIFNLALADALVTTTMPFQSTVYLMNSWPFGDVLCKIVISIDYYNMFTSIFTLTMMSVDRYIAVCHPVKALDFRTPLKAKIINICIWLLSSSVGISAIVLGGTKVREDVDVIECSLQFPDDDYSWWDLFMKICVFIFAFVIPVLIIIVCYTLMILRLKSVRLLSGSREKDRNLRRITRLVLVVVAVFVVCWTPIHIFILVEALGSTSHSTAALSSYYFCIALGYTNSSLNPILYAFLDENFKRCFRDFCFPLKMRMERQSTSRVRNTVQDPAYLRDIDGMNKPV
# ADRA2C, sequence (P18825 whole entry, species assumed): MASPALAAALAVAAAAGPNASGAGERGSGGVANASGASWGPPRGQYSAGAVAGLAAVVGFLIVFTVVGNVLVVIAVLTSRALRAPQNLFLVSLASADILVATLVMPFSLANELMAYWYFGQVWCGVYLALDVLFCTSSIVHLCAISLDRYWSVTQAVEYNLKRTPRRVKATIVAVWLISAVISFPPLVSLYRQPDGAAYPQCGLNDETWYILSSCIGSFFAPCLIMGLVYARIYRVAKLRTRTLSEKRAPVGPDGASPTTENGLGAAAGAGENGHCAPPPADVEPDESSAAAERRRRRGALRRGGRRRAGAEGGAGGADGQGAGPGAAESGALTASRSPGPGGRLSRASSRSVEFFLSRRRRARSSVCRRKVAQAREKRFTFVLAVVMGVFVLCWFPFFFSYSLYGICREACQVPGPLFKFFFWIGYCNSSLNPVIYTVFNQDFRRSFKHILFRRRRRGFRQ
# T14 sequence (P28482 whole entry): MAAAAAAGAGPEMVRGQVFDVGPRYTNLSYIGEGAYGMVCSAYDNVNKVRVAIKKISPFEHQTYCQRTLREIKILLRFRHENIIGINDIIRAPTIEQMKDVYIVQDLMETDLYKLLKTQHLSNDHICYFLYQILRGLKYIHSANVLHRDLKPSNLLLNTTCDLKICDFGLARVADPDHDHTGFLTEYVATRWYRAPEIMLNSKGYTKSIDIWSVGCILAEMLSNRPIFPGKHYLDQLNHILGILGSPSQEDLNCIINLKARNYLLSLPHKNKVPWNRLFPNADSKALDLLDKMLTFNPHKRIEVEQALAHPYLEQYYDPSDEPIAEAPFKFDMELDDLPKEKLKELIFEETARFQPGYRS
# T9 sequence (P14416 1-414 isoform P14416-2): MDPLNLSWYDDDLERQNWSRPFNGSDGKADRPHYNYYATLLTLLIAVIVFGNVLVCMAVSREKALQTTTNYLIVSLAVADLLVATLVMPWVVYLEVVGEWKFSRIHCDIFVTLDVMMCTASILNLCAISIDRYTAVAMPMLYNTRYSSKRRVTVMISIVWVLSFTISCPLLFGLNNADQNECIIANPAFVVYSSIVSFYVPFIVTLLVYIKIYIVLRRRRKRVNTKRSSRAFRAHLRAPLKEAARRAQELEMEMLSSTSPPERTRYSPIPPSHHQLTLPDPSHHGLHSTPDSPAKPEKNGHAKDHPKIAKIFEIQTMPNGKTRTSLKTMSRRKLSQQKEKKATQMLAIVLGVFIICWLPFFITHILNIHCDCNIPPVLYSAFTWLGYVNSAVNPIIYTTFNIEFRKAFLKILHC
# T15 sequence (Q15349 whole entry): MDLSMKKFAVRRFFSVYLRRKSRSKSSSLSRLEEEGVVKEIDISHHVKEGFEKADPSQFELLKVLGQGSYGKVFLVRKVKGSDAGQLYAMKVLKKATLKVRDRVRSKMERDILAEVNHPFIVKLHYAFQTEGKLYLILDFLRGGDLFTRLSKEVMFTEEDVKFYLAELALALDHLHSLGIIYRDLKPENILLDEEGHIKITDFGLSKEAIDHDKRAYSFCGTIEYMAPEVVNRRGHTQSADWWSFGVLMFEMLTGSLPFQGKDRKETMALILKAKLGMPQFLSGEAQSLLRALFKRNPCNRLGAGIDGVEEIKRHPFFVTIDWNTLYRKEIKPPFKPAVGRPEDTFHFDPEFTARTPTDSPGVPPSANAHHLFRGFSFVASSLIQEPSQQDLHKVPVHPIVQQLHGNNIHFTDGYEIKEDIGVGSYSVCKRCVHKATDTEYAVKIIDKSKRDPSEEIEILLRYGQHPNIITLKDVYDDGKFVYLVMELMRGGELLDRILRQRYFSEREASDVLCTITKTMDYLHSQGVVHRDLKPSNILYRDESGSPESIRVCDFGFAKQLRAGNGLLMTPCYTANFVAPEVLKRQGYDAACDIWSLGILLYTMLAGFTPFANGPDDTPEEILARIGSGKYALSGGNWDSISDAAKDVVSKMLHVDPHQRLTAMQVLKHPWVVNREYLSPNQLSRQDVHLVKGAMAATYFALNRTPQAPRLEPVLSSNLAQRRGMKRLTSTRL
# T8 sequence (P30556 whole entry): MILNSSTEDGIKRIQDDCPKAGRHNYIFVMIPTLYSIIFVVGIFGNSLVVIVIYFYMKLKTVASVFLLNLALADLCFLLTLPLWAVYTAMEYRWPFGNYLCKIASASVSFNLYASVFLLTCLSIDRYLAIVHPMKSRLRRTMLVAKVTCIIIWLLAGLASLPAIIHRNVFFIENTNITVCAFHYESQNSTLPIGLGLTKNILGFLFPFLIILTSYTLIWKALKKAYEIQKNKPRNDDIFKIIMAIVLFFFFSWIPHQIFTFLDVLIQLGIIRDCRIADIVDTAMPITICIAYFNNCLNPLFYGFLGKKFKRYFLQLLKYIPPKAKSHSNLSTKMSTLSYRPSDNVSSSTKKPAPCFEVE
compound,measurement,setting,value
CC1CCCN1C(=O)c1nc(C(=O)NCC(C)(C)O)sc1-c1ccc(C(O)(C(F)(F)F)C(F)(F)F)c(Cl)c1Cl (stereo not shown) [JNJ-61803534],IC50,TRα,> 1.5 µM
same,IC50,PPARα,> 1.5 µM
same,IC50,PPARβ,> 1.5 µM
same,IC50,PPARγ,> 1.5 µM
same,IC50,ERβ,> 1.5 µM
same,IC50,GR,> 1.5 µM
same,IC50,PR,> 1.5 µM
same,inhibition at 1 µM,A3 (h); 1 µM,< 10%
same,% Inhibition at 10 µM,A3 (h); 10 µM,45.2%
same,inhibition at 10 µM,A3 (h); 10 µM,> 50%
same,inhibition at 1 µM,AT1 (h),< 10%
same,inhibition at 10 µM,AT1 (h),< 10%
same,inhibition at 1 µM,D2S (h),< 10%
same,inhibition at 10 µM,D2S (h),< 10%
same,inhibition at 1 µM,NT1 (h) (NTS1),< 10%
same,inhibition at 10 µM,NT1 (h) (NTS1),< 10%
same,inhibition at 1 µM,VIP1 (h) (VPAC1),< 10%
same,inhibition at 10 µM,VIP1 (h) (VPAC1),< 10%
same,EC50,A3 [1]; agonist,> 12.5 µM
same,IC50,A3 [1]; antagonist,> 12.5 µM
same,EC50,ADRA1A; agonist,> 10 µM
same,IC50,ADRA1A; antagonist,> 10 µM
same,EC50,ADRA2C; agonist,> 12.5 µM
same,IC50,ADRA2C; antagonist,> 12.5 µM
same,EC50,KOP; agonist,> 12.5 µM
same,IC50,KOP; antagonist,> 12.5 µM
same,activity at 1 µM,IR(h),92%
same,activity at 10 µM,IR(h),89%
same,activity at 1 µM,MAPK2(h),124%
same,activity at 10 µM,MAPK2(h),127%
same,activity at 1 µM,Rsk3(h),107%
same,activity at 10 µM,Rsk3(h),104%
same,IC50,A3 [2],> 12.5 µM
same,IL-17A and IL-17F expression,"[3]; 30 mg/kg, ears, RNA level",trend towards inhibition
same,IMQ-induced neutrophils and inflammatory monocytes infiltrations in the ear,[3]; 100 mg/kg,significantly reduced
same,"IMQ-induced expression of IL-17A, IL-17F, and IL-22 genes","[3]; 100 mg/kg, ears, RNA level",significantly inhibited
same,"disease scores (thickness, redness, scaling) of back skin","[3]; 30 and 100 mg/kg oral, dose-dependent",significantly reduced
same,IL-10 expression,"[3]; 30 and 100 mg/kg, RNA level",not inhibited
same,IL-23R expression,"[3]; 30 and 100 mg/kg, RNA level",trend towards inhibition
same,IFNγ expression,[3]; RNA level,minimally impacted
same,IL-17A- and IL-17A/IL-22-producing γδ T cell populations,"[3]; ear skin and draining lymph nodes, dose-dependent",reduced
same,genetic toxicity,TK6,negative
same,Tmax,"[4]; 100 mg single oral dose, fed, n=9",12 h
same,AUC(0-inf),[4]; [5],8480 ng·h/mL
same,Cmax,[4]; [5],35.9 ng/mL
same,AUC(0-t),"[4]; both sexes, human, plasma, po, 10 mg, 10 mg single oral dose, fasted, n=6, mean (SD), read-out: AUC216h",5180 ng·h/mL
same,half-life,"[4]; both sexes, human, plasma, po, 10 mg, 10 mg single oral dose, fasted, n=6, mean (SD), read-out: t1/2 (converted)",168 h
same,Tmax,"[4]; both sexes, human, plasma, po, 10 mg, 10 mg single oral dose, fasted, n=6, read-out: tmax",10 h
same,AUC(0-inf),[4]; [6],28700 ng·h/mL
same,Cmax,[4]; [6],146 ng/mL
same,AUC(0-t),"[4]; both sexes, human, plasma, po, 30 mg, 30 mg single oral dose, fasted, n=6, mean (SD), read-out: AUC216h",17400 ng·h/mL
same,half-life,"[4]; both sexes, human, plasma, po, 30 mg, 30 mg single oral dose, fasted, n=6, mean (SD), read-out: t1/2 (converted)",170 h
same,Tmax,"[4]; both sexes, human, plasma, po, 30 mg, 30 mg single oral dose, fasted, n=6, read-out: tmax",6.02 h
same,AUC(0-inf),[4]; [7],100000 ng·h/mL
same,Cmax,[4]; [7],700 ng/mL
same,AUC(0-t),"[4]; both sexes, human, plasma, po, 100 mg, 100 mg single oral dose, fasted, n=9, mean (SD), read-out: AUC216h",68400 ng·h/mL
same,AUC(0-t),"[4]; both sexes, human, plasma, po, 100 mg, 100 mg single oral dose, fasted, n=9, mean (SD), read-out: AUClast",99100 ng·h/mL
same,half-life,"[4]; both sexes, human, plasma, po, 100 mg, 100 mg single oral dose, fasted, n=9, mean (SD), read-out: t1/2 (converted)",170 h
same,Tmax,"[4]; both sexes, human, plasma, po, 100 mg, 100 mg single oral dose, fasted, n=9, read-out: tmax",6 h
same,AUC(0-inf),[4]; [8],90400 ng·h/mL
same,Cmax,[4]; [8],602 ng/mL
same,AUC(0-t),"[4]; both sexes, human, plasma, po, 100 mg, 100 mg single oral dose, fed, n=9, mean (SD), read-out: AUC216h",61700 ng·h/mL
same,AUC(0-t),"[4]; both sexes, human, plasma, po, 100 mg, 100 mg single oral dose, fed, n=9, mean (SD), read-out: AUClast",89700 ng·h/mL
same,half-life,"[4]; both sexes, human, plasma, po, 100 mg, 100 mg single oral dose, fed, n=9, mean (SD), read-out: t1/2 (converted)",168 h
same,Tmax,"[4]; both sexes, human, plasma, po, 100 mg, 100 mg single oral dose, fed, n=9, read-out: tmax",12 h
same,AUC(0-inf),[4]; [9],201000 ng·h/mL
same,Cmax,[4]; [9],1810 ng/mL
same,AUC(0-t),"[4]; both sexes, human, plasma, po, 200 mg, 200 mg single oral dose, fasted, n=6, mean (SD), read-out: AUC216h",154000 ng·h/mL
same,AUC(0-t),"[4]; both sexes, human, plasma, po, 200 mg, 200 mg single oral dose, fasted, n=6, mean (SD), read-out: AUClast",200000 ng·h/mL
same,half-life,"[4]; both sexes, human, plasma, po, 200 mg, 200 mg single oral dose, fasted, n=6, mean (SD), read-out: t1/2 (converted)",164 h
same,Tmax,"[4]; both sexes, human, plasma, po, 200 mg, 200 mg single oral dose, fasted, n=6, read-out: tmax",6 h
same,half-life,"[4]; both sexes, human, plasma, po, single oral doses 10 to 200 mg, read-out: plasma half-life, mean T1/2 values across the dose groups",164 to 170 h
same,fraction unbound,plasma protein binding,0.011
